# Assay results from publication PMC9088798, “An Approach to Derive Functional Peptide Inhibitors of Transcription Factor Activity” (JACS Au, 2022).
# Assays:
# cJun [1] = molecular target: T1, cJun (Homo sapiens, UniProt P05412); test: CD dimer exchange, competition for cJun; type: binding; details: A-FosW added to preformed HingeW/cJun heterodimer; total peptide 10 μM
# T1 construct: The human cJun bZIP domain spans from Arg252 to Leu308; His-SUMO (N, cleaved yes); AS cap (two residues Ala-Ser) (N); GAP cap (three residues Gly-Ala-Pro) (C); made in house; host or cells: E. coli (pET21-His-SUMO plasmid)
# Description: Figure 5 TBS winner peptide HingeW binds cJun preferentially over A-FosW. CD spectra (20 °C) show the binding of cJun to either (A) HingeW or (B) A-FosW. […] However, the effect is larger for HingeW, indicating a greater increase in peptide helicity. Similarly, the thermal denaturation of cJun bound to either (C) HingeW or (D) A-FosW is right-shifted from the average of the component peptide denaturation profiles. […]
# Direct competition between HingeW and A-FosW for cJun binding was observed using CD dimer exchange experiments in which a solution containing one antagonist/cJun mixture was combined with the other antagonist to observe potential changes in α-helicity, as an indicator of a change in cJun dimerization partner. In this case, when HingeW was mixed with the preformed A-FosW/cJun heterodimer, a 17% increase in helicity was observed, as measured at 222 nm, relative to the average of the component signals (Figure 5E). […]
# increased to the optimum 4 µM in subsequent passages. […] This allows the occurrence of library members to be monitored as winner sequences are selected for. […]
# cJun [2] = molecular target: T1, cJun; test: Isothermal titration calorimetry, binding to cJun; details: ITC, average of two independent experiments, one SD
# Description: Isothermal Titration Calorimetry (ITC): Peptides were studied in an ITC buffer consisting of 10 mM potassium phosphate, 150 mM potassium fluoride and 5 mM TCEP at pH 7.4. Using a MicroCal VP-ITC instrument (Malvern), 10 µL injections of antagonist peptide (HingeW or A-FosW) at 10 µM were injected into the cell containing cJun at 1 µM.
# MicroCal Origin software was used to record and analyse the heat change upon addition.
# Control experiments involved the injection of the antagonist peptide sample into the cell containing ITC buffer alone to determine the heat of dilution which was subtracted. The resulting binding data were fit to a one site binding model to extract the enthalpy change of binding (ΔH) and the equilibrium binding constant (K D), from which the free energy change of binding (ΔG) and the entropy change of binding (ΔS) was calculated (41).
# Thermodynamic parameters are presented as an average of two independent experiments with errors given as one standard deviation. […]
# TRE DNA = test: CD TRE DNA peak, binding of cJun to TRE DNA; details: cJun 20 μM, TRE DNA 5 μM, ~281 nm
# Description: The binding of cJun to TRE DNA can be observed by monitoring a DNA absorbance peak in the CD spectrum centered at ∼281 nm.[44] […] The addition of cJun (20 μM) to TRE DNA (5 μM) decreases this DNA peak by 55% as the cJun engages its target TRE site and alters the DNA structure (Figure 6A). Subsequent titration of HingeW into this bound cJun/TRE DNA mixture reverses the peak shift, with the peak increasing as DNA is released. […]
# µM) alongside ampicillin, kanamycin and chloramphenicol to maintain the required plasmids, and IPTG (1 mM) to induce protein expression. The library transformants were […]
# however a lower stringency is used initially before selection is increased in later steps.
# Colonies from this first round of selection were pooled and serially grown in liquid culture at starting OD600 of 0.05 and grown at 37°C with shaking at 200 rpm until the OD600 […]
# increased to the optimum 4 µM in subsequent passages. Bacteria containing the most effective functional antagonists were expected to produce higher levels of TRE-mDHFR which provides a growth advantage, and these will dominate the culture. […] This allows the occurrence of library members to be monitored as winner sequences are selected for. […]
# T1 sequence (P05412 252-308): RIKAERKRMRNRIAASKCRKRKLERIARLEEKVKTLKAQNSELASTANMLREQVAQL
substance,measurement,setting,value
"LEQRAEELARENEELEKEAEELEQELDELQAEIEQLEERNYALRKEIEDLQKQLEKL [A-FosW, N-terminal AS and C-terminal GAP caps, 6xHis-tagged]",dimer exchange on mixing with preformed heterodimer,cJun [1],no dimer exchange had occurred
same,Kd,"cJun [2]; 10 µM antagonist peptide injected into 1 µM cJun, 10 mM potassium phosphate, 150 mM KF, 5 mM TCEP, pH 7.4, one site model",88.3 ± 17.6 nM
same,TΔS,cJun [2],−112.6 ± 4.1 kJ mol^–1
same,ΔH,cJun [2],−152.6 ± 4.1 kJ mol^–1
same,N (binding stoichiometry),cJun [2]; single-site binding model,1.04 ± 0.08
"cJun bZIP: human cJun bZIP domain, Arg252 to Leu308 (target protein)",decrease of TRE DNA CD peak upon addition of cJun,TRE DNA,55%
